The text below walks through data of patent publication US7705034B2, “Vinylogous acid derivatives” (Hoffmann-La Roche Inc., priority 2006, dated 2010).

For the assay, the target named is T1, Chymase purified form human skin mast cells (Homo sapiens, UniProt P23946).
T1 construct: Chymase purified form human skin mast cells was obtained from Calbiochem; purchased Calbiochem (Merck Biosciences, San Diego, Calif., USA); host or cells: human skin mast cells (natural source)
T1 sequence (P23946 22-247): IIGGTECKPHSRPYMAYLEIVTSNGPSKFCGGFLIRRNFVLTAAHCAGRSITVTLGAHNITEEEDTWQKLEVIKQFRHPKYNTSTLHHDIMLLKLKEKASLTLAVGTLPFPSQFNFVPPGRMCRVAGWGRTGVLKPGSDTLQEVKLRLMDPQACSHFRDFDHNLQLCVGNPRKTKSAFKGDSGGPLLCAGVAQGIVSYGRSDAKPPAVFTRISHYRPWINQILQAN
In words: chymase peptide substrate assay (AAPF-AMC fluorescence). In kind it is biochemical. Particulars: 1 nM chymase, 0.02 mM AAPF-substrate, pH 7.4, room temperature, 30 min pre-incubation. Here is the method:
The peptide was synthesized with a purity of 95% from Bachem, Bubendorf, Switzerland). Chymase purified form human skin mast cells was obtained from Calbiochem (Merck Biosciences, San Diego, Calif., USA). The assay buffer was 0.15 M NaCl, 0.05M, Tris HCl, 0.05% CHAPS (3-[(3-Cholamidopropyl)-dimethylammonio]-1-propane sulphonate), 0.1 mg/ml Heparin (Heparin sodium, Sigma, porcine intestinal mucosa), 0.02 mM AAPF-substrate, 1 nM Chymase at pH 7.4. The assay was performed in 96-well plates (Packard Optiplate), with a 0.05 ml volume at room temperature. Chymase activity was indicated by the initial rate of increase in fluorescence at 340/440 nm (excitation/emission) from free 7-amino-4-methylcoumarin released from the substrate. Inhibition of the activity by inhibitory compounds was read after 30 min pre-incubation with the chymase at room temperature in assay buffer without AAPF-substrate. The assay was then started by addition of the indicated concentration of AAPF-substrate.

By IC50 is commonly meant the concentration that inhibits the measured activity by half. A low value points to inhibition by little substance.

In turn, `CC(=O)NC(C)(C)Cc1c(C(C2=C(O)C(C)(c3ccccc3)C2=O)c2ccccc2)[nH]c2cc(C)ccc12` (stereo not shown) [Example 3, N-(2-{2-[(2-Hydroxy-3-methyl-4-oxo-3-phenyl-cyclobut-1-enyl)-phenyl-methyl]-6-methyl-1H-indol-3-yl}-1,1-dimethyl-ethyl)-acetamide] displayed an IC50 of 27 nM.
As for `Cc1c(C(C2=C(O)C(C)(c3ccccc3)C2=O)c2ccccc2)[nH]c2ccccc12` (stereo not shown) [Example 6, 3-Hydroxy-4-methyl-2-[(3-methyl-1H-indol-2-yl)-phenyl-methyl]-4-phenyl-cyclobut-2-enone], half-maximal inhibition (IC50) was put at 34 nM.
The compound `CC(=O)NCc1c(C(C2=C(O)C(C)(c3ccccc3)C2=O)c2ccccc2)[nH]c2cc(C)ccc12` (stereo not shown) [Example 10, N-{2-[(2-Hydroxy-3-methyl-4-oxo-3-phenyl-cyclobut-1-enyl)-phenyl-methyl]-6-methyl-1H-indol-3-ylmethyl}-acetamide] registered an IC50 of 25 nM.
For `Cc1ccc(C2(C)C(=O)C(C(c3ccccc3)c3[nH]c4cc(C)ccc4c3C)=C2O)cc1` (stereo not shown) [Example 13, 2-[(3,6-Dimethyl-1H-indol-2-yl)-phenyl-methyl]-3-hydroxy-4-methyl-4-p-tolyl-cyclobut-2-enone] the value was 8 nM.
